Read-outs that look alike come from different tables or passages of the source. Bounds are passed on as bounds.

Data set [1] concerns the target T1, enzyme (from seminal vesicles of sheep) (Ovis aries, UniProt P05979).
T1 sequence (P05979 25-600): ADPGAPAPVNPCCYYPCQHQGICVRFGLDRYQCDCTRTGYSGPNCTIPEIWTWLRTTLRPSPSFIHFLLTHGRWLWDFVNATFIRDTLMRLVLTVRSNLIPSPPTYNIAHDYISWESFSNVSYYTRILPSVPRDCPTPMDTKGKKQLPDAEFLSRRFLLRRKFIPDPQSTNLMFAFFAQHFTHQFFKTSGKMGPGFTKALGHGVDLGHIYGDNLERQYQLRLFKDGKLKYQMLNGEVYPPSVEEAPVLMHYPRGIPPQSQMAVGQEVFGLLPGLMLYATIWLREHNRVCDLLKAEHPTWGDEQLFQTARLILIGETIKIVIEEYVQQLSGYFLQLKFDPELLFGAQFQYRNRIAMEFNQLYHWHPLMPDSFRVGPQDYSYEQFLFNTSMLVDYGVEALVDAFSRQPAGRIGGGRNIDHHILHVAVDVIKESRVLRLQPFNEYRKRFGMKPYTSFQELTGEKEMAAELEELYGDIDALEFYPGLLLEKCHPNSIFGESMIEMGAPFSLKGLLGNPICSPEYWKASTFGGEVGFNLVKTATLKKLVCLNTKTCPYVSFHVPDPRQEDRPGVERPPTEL

The conditions of data set [2]: 1440 min. How it is done: Method 1: Investigation of the Stability of Unsaturated Fatty Acids in the Formulations
The stabilizing action of substances on polyunsaturated fatty acids was investigated as follows:
Test A for Water-Soluble Substances:
0.125 mg of unsaturated fatty acid or Na salt (see tables) (sodium arachidonate, from Sigma, Munich, Germany) is dissolved in 0.05 ml of water. 0.2 ml of aqueous solution which contains 2 mg of stabilizer and can additionally contain 2 mg of stimulator is mixed in (cf. Table 1), 0.1 ml is then taken out immediately, extracted and analysed (see below). Further processing according to modification 1 or 2.
Modification 1 for Aqueous Solutions
After 24 hours incubation at 37° C., 0.1 ml is again taken, extracted and analysed (see below).
Modification 2 for Solid Mixtures (Lyophilisates)
The test solution is lyophilized, the lyophilisate is incubated for 24 hours at 37° C. and then dissolved again in the previous quantity of water, and 0.1 ml is taken, extracted and analysed (see below).
Test B for Water-Insoluble Substances:
0.125 mg of unsaturated fatty acid (arachidonic acid, 5,8,11,14,17-eicosapentaenoic acid or 8,11,14-eicosatrienoic acid, from Sigma, Munich) is dissolved in 0.05 ml of ethanol or dimethyl sulfoxide. 0.2 ml of ethanol (or dimethyl sulfoxide) which contains 2 mg of stabilizer and can additionally contain 2 mg of the stimulator (cf. Table 1) is added thereto, and 0.1 ml is taken immediately and, as below, extracted and analysed. Further treatment according to modification 1 or 2.
Modification 1 for Solutions
After 24 hours' incubation at 37° C., 0.1 ml is again taken, mixed with 0.1 ml of water, extracted and analysed.
Modification 2 for Solid Mixtures
The remaining solution is freed of solvent, incubated for 24 hours at 37° C. and then dissolved again in 0.15 ml of solvent, and 0.1 ml is taken, mixed with 0.1 ml of water, extracted and analysed.
0.05 ml of 1.2M aqueous citric acid solution is added to the samples obtained, and the samples are extracted with twice 0.5 ml of ethyl acetate, the ethyl acetate is removed from the combined extracts and the residue is dissolved in 0.8 ml of methanol and analysed by means of high-pressure liquid chromatography (HPLC) (Rad Pak C-18 column, 100×8 mm, from Waters, Konigstein, Germany, 1.5 ml/minute, solvent 800 ml of methanol, 200 ml of water and 0.1 ml of glacial acetic acid). The separation is monitored with a commercially available UV detector at 206 nm.
The prostaglandins PGE2, PGF2 alpha and PGD2 as products from arachidonic acid where quantified by means of method 2, and the sum was related as "total prostaglandin" to 100%. The quantity of "total prostaglandin" formed without the addition of a stimulator was set at f=1; the quantity formed after stimulation was related thereto. f=2 or f=3 therefore means twice or three times the stimulation under the conditions of method 2. The stability of the sample was investigated by means of method 1 (right-hand column). […] Values greater than 25-28% therefore represent a stabilization, and values smaller than 25-28% represent a destabilization. Example No. 1 was carried out without a stimulator.

A short description of data set [3]: Storage of sodium arachidonate solution at room temperature for 6 weeks. Type of data set: physicochemical. The conditions noted are these: water; solution without additions, after 6 weeks at room temperature; read-out: arachidonic acid content. The protocol:
50 mg of sodium arachidonate, 500 mg of bovine serum albumin and 500 mg of L-tyrosine are dissolved under sterile conditions in 10 ml of twice distilled water and, likewise under sterile conditions, stored in a brown bottle. 93.5% of the arachidonic acid originally present are recovered after 6 weeks' storage at room temperature, whereas the same sodium arachidonate solution without additions virtually no longer contain any arachidonic acid after this time (content <0.8). The stabilized solution prepared in this way

Where [4] appears, read: Table 2, share of total prostaglandin.
Where [5] appears, read: seminal vesicle enzyme, 10 min, pH 8.
The mark [6] stands for this setting: Table 1, share of total prostaglandin (=100%).

Consider `COC1=C(OC)C(=O)C(C/C=C(\C)CC/C=C(\C)CC/C=C(\C)CC/C=C(\C)CC/C=C(\C)CC/C=C(\C)CC/C=C(\C)CC/C=C(\C)CC/C=C(\C)CCC=C(C)C)=C(C)C1=O` [Example 47, Vitamin Q10, reference compound], for which, in data set [1] (setting [4]), the PGD2 % was 14%, the PGE2 % was 8% and the PGF2alpha % is 78%. The “relative total prostaglandin f” value in data set [1] (setting [5]) is recorded as 0.8. In data set [2], the “Stabilization (% remaining unsaturated fatty acid by Method 1)” value is 8%.
Take `O=C(CCc1ccc(O)cc1)c1c(O)cc(O)cc1O[C@@H]1O[C@H](CO)[C@@H](O)[C@H](O)[C@H]1O` [Example 53, Phlorizin]: in data set [1] (setting [4]), the PGD2 % is 18%, the PGE2 % was determined as 80% and the PGF2alpha % was 2%. In data set [1] (setting [5]), the “relative total prostaglandin f” value was found to be 3. Moreover, the “Stabilization (% remaining unsaturated fatty acid by Method 1)” value in data set [2] was found to be 97%.
In data set [1] (setting [4]), `C[C@@H]1O[C@@H](O[C@H]2[C@H](Oc3cc(O)c4c(c3)O[C@H](c3ccc(O)cc3)CC4=O)O[C@H](CO)[C@@H](O)[C@@H]2O)[C@H](O)[C@H](O)[C@H]1O` [Example 54, Naringin] returned a PGD2 % of 15%, a PGE2 % of 83% and a PGF2alpha % of 2%. Moreover, the “relative total prostaglandin f” value in data set [1] (setting [5]) is 2. The “Stabilization (% remaining unsaturated fatty acid by Method 1)” value in data set [2] is 96%.
In data set [1] (setting [4]), `O=C1C[C@@H](c2ccc(O)cc2)Oc2cc(O)cc(O)c21` [Example 55, Naringenin] gave a PGD2 % of 20%, a PGE2 % of 80% and a PGF2alpha % of 0%. Also, the “relative total prostaglandin f” value in data set [1] (setting [5]) is 1.5. Further, the “Stabilization (% remaining unsaturated fatty acid by Method 1)” value in data set [2] is reported as 96%.
In data set [1] (setting [4]), `O=c1c(O)c(-c2ccc(O)cc2)oc2cc(O)cc(O)c12` [Example 56, Kaempferol] yielded a PGD2 % of 13%, a PGE2 % of 76% and a PGF2alpha % of 11%. For the same compound, the “relative total prostaglandin f” value in data set [1] (setting [5]) is listed as 0.5. Also, the “Stabilization (% remaining unsaturated fatty acid by Method 1)” value in data set [2] amounted to 98%.
In the case of `Oc1cc(O)c2c(c1)O[C@H](c1ccc(O)c(O)c1)[C@H](O)C2` [Example 59, Epicatechin], in data set [1] (setting [4]), the PGD2 % was determined as 12%, the PGE2 % is listed as 71% and the PGF2alpha % was determined as 17%. Moreover, the “Stabilization (% remaining unsaturated fatty acid by Method 1)” value in data set [2] was determined as 89%.
On to `CCCCC/C=C\C/C=C\C/C=C\C/C=C\CCCC(=O)O` [sodium arachidonate], for which, in data set [3], the remaining at 1008 h is less than 0.8%.
With TrpMetAspPhe [Example 28], the “relative total prostaglandin f” value in data set [1] (Table 1, 0.5 mg stimulator, 10 min 37° C., without stimulator f=1) came out at 11.8. Besides, in data set [1] (setting [6]), the PGD2 % amounted to 20%, the PGE2 % is recorded as 73% and the PGF2alpha % was 7%. For the same compound, the “Stability (% remaining fatty acid by Method 1)” value in data set [2] worked out at 97%.

(Values after patent US5043328A, “Formulations containing unsaturated fatty acids for the synthesis of prostaglandins and hydroxy-fatty acids in biological systems” (priority 1986, dated 1991).)
